Test results taken from patent publication US20240327463A1, “ANTIBACTERIAL PRODUCTS” (priority 2017, published 2024).
Converted amounts (≈) assume the structure as drawn. Bridge positions count the residues as written; N and C are the ends. Square brackets hold non-standard residues; d marks the D form. Peptide text beside a SMILES is read from it. ξ: configuration not given here. dNMeF = CN[C@H](Cc1ccccc1)C(=O)O; Ile(3ξ) = CCC(C)[C@H](N)C(=O)O; Chg = N[C@H](C(=O)O)C1CCCCC1; Nva = CCC[C@H](N)C(=O)O

Test system: MRSA ATCC 33591
Conditions: ATCC 33591
Method: For MIC testing all peptides were dissolved in DMSO (according to the method of L. L. Ling, et al., Nature 2015, 517, 455-459). Bacteria were grown on Mueller Hinton broth (oxoid). All incubations were at 37° C. Dilutions were carried out using Mueller Hinton. 100 μl of autoclaved Mueller Hinton broth was added to wells 2-12 on a 96-well plate. 200 μl of the peptide was added to well one at a concentration of 512 μg/ml. 100 μl of peptide in well one was taken up and pipetted into well two. The mixture was then mixed via pipetting before 100 μl was taken up and pipetted into well three. This process was repeated up to well 11. […] This was repeated three times. The 96-well plates were then incubated for 24 hours. The MIC was determined to be the lowest concentration at which there was no growth visible.

`CC[C@@H](C)[C@@H](NC(=O)[C@@H](CCC(N)=O)NC(=O)[C@H](CO)NC(=O)[C@@H](NC(=O)[C@@H](C)NC(C)=O)[C@@H](C)CC)C(=O)N[C@H](C(=O)N[C@@H](CO)C(=O)N[C@H]1C(=O)N[C@@H](C)C(=O)N[C@@H](CCCNC(=N)N)C(=O)N[C@@H]([C@@H](C)CC)C(=O)O[C@H]1C)[C@@H](C)CC` [Compound 7] was tested, and the “MIC (MRSA*)” value was over 128 µg/mL.
For `CC[C@@H](C)[C@@H](NC(=O)[C@@H](CCC(N)=O)NC(=O)[C@H](CO)NC(=O)[C@H](C)NC(=O)[C@@H](Cc1ccccc1)NC)C(=O)N[C@H](C(=O)N[C@@H](CO)C(=O)N[C@H]1C(=O)N[C@@H](C)C(=O)N[C@@H](CCCNC(=N)N)C(=O)N[C@@H]([C@@H](C)CC)C(=O)O[C@H]1C)[C@@H](C)CC` [Compound 8] (H-[dNMeF]AS[dQ][dI]IS[dT]ARI; ester 8-C), the “MIC (MRSA*)” value was over 128 µg/mL.
With `CC[C@@H](C)[C@@H](NC(=O)[C@@H](CCC(N)=O)NC(=O)[C@H](CO)NC(=O)[C@@H](NC(=O)[C@@H](Cc1ccccc1)NC)[C@@H](C)CC)C(=O)N[C@@H](C)C(=O)N[C@@H](CO)C(=O)N[C@H]1C(=O)N[C@@H](C)C(=O)N[C@@H](CCCNC(=N)N)C(=O)N[C@@H]([C@@H](C)CC)C(=O)O[C@H]1C` [Compound 12] (H-[dNMeF]IS[dQ][dI]AS[dT]ARI; ester 8-C) the “MIC (MRSA*)” value was over 128 µg/mL.

Point of comparison: `CC[C@@H](C)[C@@H](NC(=O)[C@@H](CCC(N)=O)NC(=O)[C@H](CO)NC(=O)[C@@H](NC(=O)[C@@H](Cc1ccccc1)NC)[C@@H](C)CC)C(=O)N[C@H](C(=O)N[C@@H](CO)C(=O)N[C@H]1C(=O)N[C@@H](C)C(=O)NCC(=O)N[C@@H]([C@@H](C)CC)C(=O)O[C@H]1C)[C@@H](C)CC` [Compound 16, Gly10-teixobactin], “MIC (MRSA*)” value 2 µg/mL (≈ 1.75 µM). Against it:
- CC[C@@H](C)[C@@H](NC(=O)[C@@H](CCC(N)=O)NC(=O)[C@H](C)NC(=O)[C@@H](NC(=O)[C@@H](Cc1ccccc1)NC)[C@@H](C)CC)C(=O)N[C@H](C(=O)N[C@@H](CO)C(=O)N[C@H]1C(=O)N[C@@H](C)C(=O)N[C@@H](CCCNC(=N)N)C(=O)N[C@@H]([C@@H](C)CC)C(=O)O[C@H]1C)[C@@H](C)CC [Compound 9] (H-[dNMeF]IA[dQ][dI]IS[dT]ARI; ester 8-C) — not separable, 1 to 2 µg/mL
- CC[C@@H](C)[C@@H](NC(=O)[C@@H](C)NC(=O)[C@H](CO)NC(=O)[C@@H](NC(=O)[C@@H](Cc1ccccc1)NC)[C@@H](C)CC)C(=O)N[C@H](C(=O)N[C@@H](CO)C(=O)N[C@H]1C(=O)N[C@@H](C)C(=O)N[C@@H](CCCNC(=N)N)C(=O)N[C@@H]([C@@H](C)CC)C(=O)O[C@H]1C)[C@@H](C)CC [Compound 10] (H-[dNMeF]IS[dA][dI]IS[dT]ARI; ester 8-C) — not separable, 2 to 4 µg/mL
- CC[C@@H](C)[C@@H](NC(=O)[C@@H](CCC(N)=O)NC(=O)[C@H](CO)NC(=O)[C@@H](NC(=O)[C@@H](Cc1ccccc1)NC)[C@@H](C)CC)C(=O)N[C@H](C(=O)N[C@@H](C)C(=O)N[C@H]1C(=O)N[C@@H](C)C(=O)N[C@@H](CCCNC(=N)N)C(=O)N[C@@H]([C@@H](C)CC)C(=O)O[C@H]1C)[C@@H](C)CC [Compound 13, reference compound] (H-[dNMeF]IS[dQ][dI]IA[dT]ARI; ester 8-C) — higher, 16 to 32 µg/mL
- CC[C@@H](C)[C@@H](NC(=O)[C@@H](CCC(N)=O)NC(=O)[C@H](CO)NC(=O)[C@@H](NC(=O)[C@@H](Cc1ccccc1)NC)[C@@H](C)CC)C(=O)N[C@H](C(=O)N[C@@H](CO)C(=O)N[C@H]1C(=O)N[C@@H](C)C(=O)N[C@H](C)C(=O)N[C@@H]([C@@H](C)CC)C(=O)O[C@H]1C)[C@@H](C)CC [Compound 15] — 16-fold higher, 32 µg/mL (≈ 27.6 µM)

Point of comparison: `CC[C@@H](C)[C@@H](NC(=O)[C@@H](CCCNC(=N)N)NC(=O)[C@H](CCCNC(=N)N)NC(=O)[C@@H](NC(=O)[C@@H](Cc1ccccc1)NC)[C@@H](C)CC)C(=O)N[C@H](C(=O)N[C@@H](CO)C(=O)N[C@H]1C(=O)N[C@@H](C)C(=O)N[C@@H](C2CCCCC2)C(=O)N[C@@H]([C@@H](C)CC)C(=O)O[C@H]1C)[C@@H](C)CC` [Compound 40, Arg3-D-Arg4-Chg10-teixobactin] (H-[dNMeF]IR[dR][dI]IS[dT]A[Chg]I; ester 8-C), “MIC (MRSA)” value 1 µg/mL (≈ 0.755 µM). Against it:
- CCC(C)[C@@H]1NC(=O)[C@H](C)NC(=O)[C@H](NC(=O)[C@H](CO)NC(=O)[C@@H](NC(=O)[C@H](NC(=O)[C@@H](CCCNC(=N)N)NC(=O)[C@H](CCCNC(=N)N)NC(=O)[C@@H](NC(=O)[C@@H](Cc2ccccc2)NC)[C@@H](C)CC)[C@H](C)CC)[C@@H](C)CC)[C@H](C)OC(=O)[C@H]([C@@H](C)CC)NC1=O (stereo partly drawn) [Compound 35, Arg3-D-Arg4-Ile10-teixobactin] (H-[dNMeF]IR[dR][dI]IS[dT]A[Ile(3ξ)]I; ester 8-C) — 2-fold lower, 0.5 µg/mL (≈ 0.385 µM)
- CC[C@@H](C)[C@@H](NC(=O)[C@@H](CCC(N)=O)NC(=O)[C@H](CO)NC(=O)[C@@H](NC(=O)[C@@H](Cc1ccccc1)NC)[C@@H](C)CC)C(=O)N[C@H](C(=O)N[C@@H](CO)C(=O)N[C@H]1C(=O)N[C@@H](C)C(=O)N[C@@H](C2CCCCC2)C(=O)N[C@@H]([C@@H](C)CC)C(=O)O[C@H]1C)[C@@H](C)CC [Compound 36, Chg10-teixobactin] — 4-fold lower, 0.25 µg/mL (≈ 0.204 µM)
- CC[C@@H](C)[C@@H](NC(=O)[C@@H](CCC(N)=O)NC(=O)[C@H](CCCNC(=N)N)NC(=O)[C@@H](NC(=O)[C@@H](Cc1ccccc1)NC)[C@@H](C)CC)C(=O)N[C@H](C(=O)N[C@@H](CO)C(=O)N[C@H]1C(=O)N[C@@H](C)C(=O)N[C@@H](C2CCCCC2)C(=O)N[C@@H]([C@@H](C)CC)C(=O)O[C@H]1C)[C@@H](C)CC [Compound 37, Arg3-Chg10-teixobactin] — 2-fold lower, 0.5 µg/mL (≈ 0.386 µM)
- CC[C@@H](C)[C@@H](NC(=O)[C@@H](CCCNC(=N)N)NC(=O)[C@H](CO)NC(=O)[C@@H](NC(=O)[C@@H](Cc1ccccc1)NC)[C@@H](C)CC)C(=O)N[C@H](C(=O)N[C@@H](CO)C(=O)N[C@H]1C(=O)N[C@@H](C)C(=O)N[C@@H](C2CCCCC2)C(=O)N[C@@H]([C@@H](C)CC)C(=O)O[C@H]1C)[C@@H](C)CC [Compound 38, D-Arg4-Chg10-teixobactin] — 2-fold lower, 0.5 µg/mL (≈ 0.398 µM)
- CC[C@@H](C)[C@@H](NC(=O)[C@@H](CCC(N)=O)NC(=O)[C@H](CO)NC(=O)[C@@H](NC(=O)[C@@H](Cc1ccccc1)NC)[C@@H](C)CC)C(=O)N[C@H](C(=O)N[C@@H](CO)C(=O)N[C@H]1C(=O)N[C@@H](CCCNC(=N)N)C(=O)N[C@@H](C2CCCCC2)C(=O)N[C@@H]([C@@H](C)CC)C(=O)O[C@H]1C)[C@@H](C)CC [Compound 39, Arg9-Chg10-teixobactin] — the same, 1 µg/mL (≈ 0.762 µM)
- CC[C@@H](C)[C@@H](NC(=O)[C@@H](CCC(N)=O)NC(=O)[C@H](CCCNC(=N)N)NC(=O)[C@@H](NC(=O)[C@@H](Cc1ccccc1)NC)[C@@H](C)CC)C(=O)N[C@H](C(=O)N[C@@H](CO)C(=O)N[C@H]1C(=O)N[C@@H](CCCNC(=N)N)C(=O)N[C@@H](C2CCCCC2)C(=O)N[C@@H]([C@@H](C)CC)C(=O)O[C@H]1C)[C@@H](C)CC [Compound 41, Arg3-Arg9-Chg10-teixobactin] (H-[dNMeF]IR[dQ][dI]IS[dT]R[Chg]I; ester 8-C) — 2-fold lower, 0.5 µg/mL (≈ 0.362 µM)
- CC[C@@H](C)[C@@H](NC(=O)[C@@H](CCCNC(=N)N)NC(=O)[C@H](CO)NC(=O)[C@@H](NC(=O)[C@@H](Cc1ccccc1)NC)[C@@H](C)CC)C(=O)N[C@H](C(=O)N[C@@H](CO)C(=O)N[C@H]1C(=O)N[C@@H](CCCNC(=N)N)C(=O)N[C@@H](C2CCCCC2)C(=O)N[C@@H]([C@@H](C)CC)C(=O)O[C@H]1C)[C@@H](C)CC [Compound 42, D-Arg4-Arg9-Chg10-teixobactin] (H-[dNMeF]IS[dR][dI]IS[dT]R[Chg]I; ester 8-C) — 2-fold lower, 0.5 µg/mL (≈ 0.373 µM)
- CC[C@@H](C)[C@@H](NC(=O)[C@@H](CCCNC(=N)N)NC(=O)[C@H](CCCNC(=N)N)NC(=O)[C@@H](NC(=O)[C@@H](Cc1ccccc1)NC)[C@@H](C)CC)C(=O)N[C@H](C(=O)N[C@@H](CO)C(=O)N[C@H]1C(=O)N[C@@H](CCCNC(=N)N)C(=O)N[C@@H](C2CCCCC2)C(=O)N[C@@H]([C@@H](C)CC)C(=O)O[C@H]1C)[C@@H](C)CC [Compound 43, Arg3-D-Arg4-Arg9-Chg10-teixobactin] (H-[dNMeF]IR[dR][dI]IS[dT]R[Chg]I; ester 8-C) — 64-fold higher, 64 µg/mL (≈ 45.4 µM)
- CCC[C@@H]1NC(=O)[C@H](C)NC(=O)[C@H](NC(=O)[C@H](CO)NC(=O)[C@@H](NC(=O)[C@H](NC(=O)[C@@H](CCC(N)=O)NC(=O)[C@H](CO)NC(=O)[C@@H](NC(=O)[C@@H](Cc2ccccc2)NC)[C@@H](C)CC)[C@H](C)CC)[C@@H](C)CC)[C@H](C)OC(=O)[C@H]([C@@H](C)CC)NC1=O [Compound 44, Nva10-teixobactin] — 2-fold lower, 0.5 µg/mL (≈ 0.421 µM)
- CCC[C@@H]1NC(=O)[C@H](C)NC(=O)[C@H](NC(=O)[C@H](CO)NC(=O)[C@@H](NC(=O)[C@H](NC(=O)[C@@H](CCC(N)=O)NC(=O)[C@H](CCCNC(=N)N)NC(=O)[C@@H](NC(=O)[C@@H](Cc2ccccc2)NC)[C@@H](C)CC)[C@H](C)CC)[C@@H](C)CC)[C@H](C)OC(=O)[C@H]([C@@H](C)CC)NC1=O [Compound 45, Arg3-Nva10-teixobactin] (H-[dNMeF]IR[dQ][dI]IS[dT]A[Nva]I; ester 8-C) — the same, 1 µg/mL (≈ 0.796 µM)
- CCC[C@@H]1NC(=O)[C@H](C)NC(=O)[C@H](NC(=O)[C@H](CO)NC(=O)[C@@H](NC(=O)[C@H](NC(=O)[C@@H](CCCNC(=N)N)NC(=O)[C@H](CO)NC(=O)[C@@H](NC(=O)[C@@H](Cc2ccccc2)NC)[C@@H](C)CC)[C@H](C)CC)[C@@H](C)CC)[C@H](C)OC(=O)[C@H]([C@@H](C)CC)NC1=O [Compound 46, D-Arg4-Nva10-teixobactin] — 4-fold lower, 0.25 µg/mL (≈ 0.206 µM)
